From patent US9738932B2, “Biomarkers for cardiovascular side-effects induced by cox-2 inhibitory compounds” (FIRALIS SAS, priority 2005, dated 2017)

Test system: mRNA expression in cardiovascular tissues
Assay: Affymetrix GeneChip mRNA expression profiling of monkey tissues (iliac vein, pulmonary vein, aorta, carotid artery, heart) after two-week oral-gavage treatment
Conditions: iliac vein; group avg, Vioxx without A60055

With `O=C(O)Cc1ccccc1Nc1c(Cl)cccc1Cl` [Voltaren] as the compound, how does the “HFE (211329_x_at) avg fold change vs control” value read?
The value was 0.9 fold.

What about the “HFE (211332_x_at) avg fold change vs control” value of the same compound?
The value was 0.9 fold.

What about the “HFE (211863_x_at) avg fold change vs control” value of the same compound?
Its value is 1.0 fold.

What about the “HFE (211866_x_at) avg fold change vs control” value of the same compound?
Its value is 0.9 fold.

What about the “HHL (203020_at) avg fold change vs control” value of the same compound?
Its value is 0.8 fold.

And the “HLA-A (211528_x_at) avg fold change vs control” value?
The value was 1.1 fold.

And the “HLA-A (211529_x_at) avg fold change vs control” value?
Its value is 1.2 fold.

And the “HLA-A (211530_x_at) avg fold change vs control” value?
The value was 1.6 fold.

What about the “HLA-A (215313_x_at) avg fold change vs control” value of the same compound?
The value was 1.3 fold.

What about the “HLA-B (208729_x_at) avg fold change vs control” value of the same compound?
The value was 1.2 fold.

What about the “HLA-B (209140_x_at) avg fold change vs control” value of the same compound?
Its value is 1.2 fold.

And the “HLA-B (211911_x_at) avg fold change vs control” value?
The value was 1.2 fold.

And the “HLA-C (208812_x_at) avg fold change vs control” value?
The value was 1.2 fold.

And the “HLA-C (214459_x_at) avg fold change vs control” value?
The value was 1.3 fold.

What about the “HLA-C (216526_x_at) avg fold change vs control” value of the same compound?
The value was 1.5 fold.

And the “HLA-DMA (217478_s_at) avg fold change vs control” value?
The value was 1.3 fold.

And the “HLA-DMB (203932_at) avg fold change vs control” value?
Its value is 1.0 fold.

What about the “HLA-DQA1 (212671_s_at) avg fold change vs control” value of the same compound?
Its value is 1.2 fold.

What about the “HLA-DQB1 (209823_x_at) avg fold change vs control” value of the same compound?
Its value is 1.3 fold.

And the “HLA-DQB1 (211654_x_at) avg fold change vs control” value?
Its value is 1.6 fold.

And the “HLA-DQB1 (211656_x_at) avg fold change vs control” value?
The value was 1.2 fold.

And the “HLA-DQB2 (212998_x_at) avg fold change vs control” value?
The value was 2.2 fold.

And the “HLA-DRA (208894_at) avg fold change vs control” value?
Its value is 1.1 fold.

And the “HLA-DRA (210982_s_at) avg fold change vs control” value?
Its value is 1.0 fold.

And the “HLA-DRB1 (215193_x_at) avg fold change vs control” value?
The value was 1.3 fold.

What about the “HLA-DRB3 (209312_x_at) avg fold change vs control” value of the same compound?
The value was 1.1 fold.

What about the “HLA-DRB6 (217362_x_at) avg fold change vs control” value of the same compound?
The value was 1.0 fold.

What about the “HLA-E (200905_x_at) avg fold change vs control” value of the same compound?
The value was 1.2 fold.

And the “HLA-E (217456_x_at) avg fold change vs control” value?
The value was 1.2 fold.

What about the “HLA-F (204806_x_at) avg fold change vs control” value of the same compound?
Its value is 1.0 fold.

And the “HLA-F (221875_x_at) avg fold change vs control” value?
The value was 1.0 fold.

What about the “ICAM1 (202638_s_at) avg fold change vs control” value of the same compound?
The value was 1.5 fold.

And the “ICAM1 (215485_s_at) avg fold change vs control” value?
Its value is 1.1 fold.

What about the “ICSBP1 (204057_at) avg fold change vs control” value of the same compound?
The value was 1.1 fold.

And the “IFI27 (202411_at) avg fold change vs control” value?
Its value is 5.6 fold.

And the “IFI30 (201422_at) avg fold change vs control” value?
Its value is 1.4 fold.

What about the “IFI44 (214453_s_at) avg fold change vs control” value of the same compound?
The value was 1.7 fold.

And the “IFIT1 (203153_at) avg fold change vs control” value?
The value was 1.0 fold.

What about the “IFIT2 (217502_at) avg fold change vs control” value of the same compound?
The value was 0.8 fold.

And the “IFIT4 (204747_at) avg fold change vs control” value?
The value was 0.9 fold.

What about the “IFITM2 (201315_x_at) avg fold change vs control” value of the same compound?
The value was 1.6 fold.

And the “IFITM3 (212203_x_at) avg fold change vs control” value?
Its value is 1.3 fold.

And the “IGF1 (209541_at) avg fold change vs control” value?
Its value is 1.2 fold.

What about the “IGFBP4 (201508_at) avg fold change vs control” value of the same compound?
Its value is 0.8 fold.

And the “IL1A (208200_at) avg fold change vs control” value?
Its value is 1.2 fold.

And the “IL2RG (204116_at) avg fold change vs control” value?
Its value is 1.2 fold.

And the “IL27RA (205926_at) avg fold change vs control” value?
The value was 1.3 fold.

And the “INDO (210029_at) avg fold change vs control” value?
The value was 1.4 fold.

And the “INPP5D (203332_s_at) avg fold change vs control” value?
The value was 1.2 fold.

What about the “IRF1 (202531_at) avg fold change vs control” value of the same compound?
The value was 1.1 fold.

And the “IRF7 (208436_s_at) avg fold change vs control” value?
Its value is 1.2 fold.

And the “ISGF3G (203882_at) avg fold change vs control” value?
Its value is 1.4 fold.

And the “ITGB2 (202803_s_at) avg fold change vs control” value?
Its value is 1.0 fold.

What about the “JAK1 (214377_s_at) avg fold change vs control” value of the same compound?
The value was 1.1 fold.

And the “KLKB1 (206541_at) avg fold change vs control” value?
The value was 1.2 fold.

And the “LAIR1 (208071_s_at) avg fold change vs control” value?
Its value is 0.8 fold.

What about the “LCK (204890_s_at) avg fold change vs control” value of the same compound?
Its value is 0.9 fold.

And the “LCP2 (205270_s_at) avg fold change vs control” value?
Its value is 1.2 fold.

And the “LILRB1 (207857_at) avg fold change vs control” value?
Its value is 0.8 fold.

What about the “LILRB1 (211100_x_at) avg fold change vs control” value of the same compound?
The value was 1.2 fold.

And the “LILRB3 (208594_x_at) avg fold change vs control” value?
The value was 1.4 fold.

And the “LILRB3 (210225_x_at) avg fold change vs control” value?
The value was 1.3 fold.

What about the “LRMP (204674_at) avg fold change vs control” value of the same compound?
The value was 1.6 fold.

What about the “LY86 (205859_at) avg fold change vs control” value of the same compound?
Its value is 1.2 fold.

And the “LY96 (206584_at) avg fold change vs control” value?
Its value is 1.4 fold.

And the “LYN (210754_s_at) avg fold change vs control” value?
Its value is 1.1 fold.

What about the “MAF (209348_s_at) avg fold change vs control” value of the same compound?
Its value is 0.9 fold.

And the “PCOLCE (202465_at) avg fold change vs control” value?
Its value is 0.3 fold.

And the “PLA2G4C (209785_s_at) avg fold change vs control” value?
The value was 1.0 fold.

And the “PLCL2 (216217_at) avg fold change vs control” value?
The value was 1.0 fold.

And the “PLSCR1 (202446_s_at) avg fold change vs control” value?
Its value is 1.5 fold.

And the “PRC1 (218009_s_at) avg fold change vs control” value?
The value was 0.8 fold.

And the “PRG1 (201858_s_at) avg fold change vs control” value?
Its value is 1.1 fold.

And the “PRG1 (201859_at) avg fold change vs control” value?
The value was 1.2 fold.

And the “PTPN22 (206060_s_at) avg fold change vs control” value?
The value was 0.9 fold.

What about the “PTPRC (207238_s_at) avg fold change vs control” value of the same compound?
Its value is 1.3 fold.

What about the “SOCS3 (206360_s_at) avg fold change vs control” value of the same compound?
Its value is 1.4 fold.

What about the “STAT1 (209969_s_at) avg fold change vs control” value of the same compound?
The value was 2.3 fold.

And the “STAT1 (AFFX-HUMISGF3A/M97935_5_at) avg fold change vs control” value?
Its value is 1.0 fold.

And the “STAT1 (AFFX-HUMISGF3A/M97935_MA_at) avg fold change vs control” value?
The value was 1.0 fold.

What about the “STAT1 (AFFX-HUMISGF3A/M97935_MB_at) avg fold change vs control” value of the same compound?
The value was 1.1 fold.

And the “TAPBP (208829_at) avg fold change vs control” value?
The value was 1.0 fold.

What about the “TCTEL1 (201999_s_at) avg fold change vs control” value of the same compound?
The value was 0.9 fold.

And the “TLR1 (210176_at) avg fold change vs control” value?
The value was 1.3 fold.

What about the “TLR2 (204924_at) avg fold change vs control” value of the same compound?
Its value is 1.4 fold.

What about the “TNFAIP3 (202643_s_at) avg fold change vs control” value of the same compound?
Its value is 1.3 fold.

And the “TNFAIP3 (202644_s_at) avg fold change vs control” value?
The value was 1.7 fold.

And the “TNFSF6 (210865_at) avg fold change vs control” value?
The value was 1.2 fold.

What about the “TNFSF10 (202687_s_at) avg fold change vs control” value of the same compound?
Its value is 1.2 fold.

And the “TNFSF10 (202688_at) avg fold change vs control” value?
The value was 1.1 fold.

And the “TRGC2 (211144_x_at) avg fold change vs control” value?
Its value is 1.0 fold.

And the “TRGC2 (216920_s_at) avg fold change vs control” value?
Its value is 1.2 fold.

And the “VCAM1 (203868_s_at) avg fold change vs control” value?
The value was 1.4 fold.

And the “XCL1 (206366_x_at) avg fold change vs control” value?
The value was 1.8 fold.

What about the “XCL1 (214567_s_at) avg fold change vs control” value of the same compound?
The value was 0.5 fold.

What about the “XLKD1 (219059_s_at) avg fold change vs control” value of the same compound?
The value was 1.4 fold.

What about the “cig5 (213797_at) avg fold change vs control” value of the same compound?
Its value is 2.1 fold.
